Laboratory results taken from PubChem BioAssay (NCI).
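Step 1: Grow cells in 96-well plates. Step 2: Expose to compound for 48 hours at 5 concentrations. Step 3: Interpolate endpoints linearly; if unreached, use highest concentration. Here, GI50 denotes the concentration required for 50% inhibition of growth. TGI is the concentration that stops growth completely.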

Tests used:
Experiment in all cases: DTP human tumour cell line panel, 48 h
[1] = system: HCC-2998 colon
[2] = system: HT29 colon
[3] = system: HOP-92 NSCLC
[4] = system: SF-295 CNS
[5] = system: SK-OV-3 ovarian
[6] = system: OVCAR-4 ovarian
[7] = system: NCI/ADR-RES ovarian
[8] = system: T-47D breast
[9] = system: MCF7 breast
[10] = system: MDA-MB-231 breast

Compound | TGI [1] [µM] | TGI [2] [µM] | TGI [3] [µM] | TGI [4] [µM] | TGI [5] [µM] | TGI [6] [µM] | TGI [7] [µM] | TGI [8] [µM] | TGI [9] [µM] | TGI [10] [µM] | GI50 [7] [µM] | GI50 [1] [µM] | GI50 [2] [µM] | GI50 [4] [µM] | GI50 [9] [µM] | GI50 [5] [µM] | GI50 [6] [µM] | GI50 [10] [µM] | GI50 [8] [µM] | GI50 [3] [µM]
NC(=S)N/N=C(/CC(=O)c1ccccc1)C(=O)Nc1ccc(Cl)c(Cl)c1 | > 100 | > 100 | > 100 | > 100 | > 100 | > 100 |  |  |  |  |  |  |  |  |  |  |  |  |  | 
COc1nc(NC2OCC(OC(C)=O)C(OC(C)=O)C2OC(C)=O)c(N=CC=Nc2c(NC3OCC(OC(C)=O)C(OC(C)=O)C3OC(C)=O)nc(OC)n(C)c2=O)c(=O)n1C (centres undefined) | > 100 | > 100 | > 100 | > 100 | > 100 | > 100 |  |  |  |  |  |  |  |  |  |  |  |  |  | 
CC1=NOC(=O)/C1=C/c1ccccc1O | > 100 | > 100 | > 100 | > 100 | > 100 | > 100 |  |  |  |  |  |  |  |  |  |  |  |  |  | 
COc1c2c(c3c(c1CCC(=O)O)OC(C)(C)C=C3)OC(C)(C)C=C2 | > 100 | > 100 |  | > 100 | > 100 | > 100 | > 100 | > 100 | > 100 | > 100 |  |  |  |  |  |  |  |  |  | 
CN(C)/C=C/c1nnc([N+](=O)[O-])s1 | 33.2 | 14.6 |  | 39.4 | 55.2 |  | 37.7 | 38.9 | 8.01 | 85.9 |  |  |  |  |  |  |  |  |  | 
CCN1C(=O)N(CC)C2C1NN=c1s/c(=C\c3cccnc3)c(=O)n12 (centres undefined) | > 100 | > 100 | > 100 | > 100 | > 100 | > 100 | > 100 |  | > 100 | > 95.3 | 0.38 | 1.29 | 0.386 | 0.353 | 0.333 | 2.02 | 5.72 | 3.57 |  | 
COc1ccc(-c2ccc(/C=N/n3c(COc4ccc(Cl)cc4Cl)n[nH]c3=S)o2)c([N+](=O)[O-])c1 |  | 79.6 |  | 36.5 | > 100 | 72.7 | 46.4 | > 100 | 41.7 |  | 19.8 |  | 34.2 | 18 | 15.9 | 23.6 | 28.9 |  | 44 | 
C=CCC1([C@H](C)[C@@H](OC(C)=O)c2cc(OC)c(OC)c(OC)c2)C[C@@H](OC)CCC1=O (some centres undefined) |  | 38 | > 100 | 39.7 | > 100 | 85.1 |  |  |  |  |  |  |  |  |  |  |  |  |  | 
CC1CCCCc2nc3c(c(=O)n21)CCCC3 (centres undefined) | > 100 | > 100 | > 100 | > 100 | > 100 | > 100 |  |  |  |  |  |  |  |  |  |  |  |  |  | 
CC1=NCCc2c1[nH]c1cc(O)ccc21 | > 100 | > 100 | > 100 | > 100 | > 100 | > 100 |  |  |  |  |  |  |  |  |  |  |  |  |  | 
CC1SC(c2c(Cl)cccc2Cl)N(NC(=O)c2[nH]c3ccc(F)cc3c2-c2ccccc2)C1=O (centres undefined) | > 100 | 10.8 |  | 3.71 | 4.2 | 3.4 | 4.8 | 14 | 11.5 | 4.28 | 2.05 | 25 | 2.96 | 1.9 | 3.18 | 1.95 | 1.69 | 2.13 | 2.61 | 
Cc1ccc(-c2c(N)[n+]([O-])c3ccccc3[n+]2[O-])cc1 | 30.1 | 31.4 | > 100 | 45.1 | 35.9 | 33.1 |  |  |  |  |  |  |  |  |  |  |  |  |  | 
COc1ccccc1NC(=O)CC(=O)N1N=C(C)C(N=Nc2ccc(S(N)(=O)=O)cc2)C1=O (centres undefined) | > 100 | > 100 | > 100 | > 100 | > 100 | > 100 |  |  |  |  |  |  |  |  |  |  |  |  |  | 
N#C/C(=C1\OC(=O)C(c2ccc(Br)cc2)=C1O)c1ccc(Br)cc1 | 28.9 | 34.5 | 30 | 32.8 | 39.9 | 34.3 |  |  |  |  |  |  |  |  |  |  |  |  |  | 
COC(=O)CCC(NC(=S)N/N=C(\C)c1nccs1)C(=O)OC (centres undefined) | > 100 | > 100 | > 100 | > 100 | > 100 | > 100 |  |  |  |  |  |  |  |  |  |  |  |  |  | 
Nc1cc2cccc[n+]2c2cc(Cl)ccc12 | 37.7 |  | 69.6 |  |  | 38.9 |  |  | 63 | 51 |  | 16.8 | 37.4 | 23.1 | 17.9 |  | 8.44 | 17.7 | 6.83 | 22.7
CC(=O)NC(CCCNCc1ccccc1)C(=O)NCc1ccccc1 (centres undefined) | > 100 | > 100 | > 100 | > 100 | > 100 | > 100 |  |  |  |  |  |  |  |  |  |  |  |  |  | 
